Reference: patent US20160159814A1, “GLYCINE TRANSPORTER INHIBITOR” (TAISHO PHARMACEUTICAL CO., LTD., priority 2013, published 2016)

target: T1, human type 1 glycine transporter (GlyT1) (Homo sapiens, UniProt P48067); assay: Glycine uptake inhibition experiment ([3H] glycine uptake in T98G cells expressing GlyT1); assay type: cell-based; settings: glycine uptake inhibition
T1 construct: T98G cells (glioma cells) expressing human type 1 glycine transporter (GlyT1) were used; endogenous in cells; host or cells: T98G cells (human glioma cells)
T1 sequence (P48067 1-706): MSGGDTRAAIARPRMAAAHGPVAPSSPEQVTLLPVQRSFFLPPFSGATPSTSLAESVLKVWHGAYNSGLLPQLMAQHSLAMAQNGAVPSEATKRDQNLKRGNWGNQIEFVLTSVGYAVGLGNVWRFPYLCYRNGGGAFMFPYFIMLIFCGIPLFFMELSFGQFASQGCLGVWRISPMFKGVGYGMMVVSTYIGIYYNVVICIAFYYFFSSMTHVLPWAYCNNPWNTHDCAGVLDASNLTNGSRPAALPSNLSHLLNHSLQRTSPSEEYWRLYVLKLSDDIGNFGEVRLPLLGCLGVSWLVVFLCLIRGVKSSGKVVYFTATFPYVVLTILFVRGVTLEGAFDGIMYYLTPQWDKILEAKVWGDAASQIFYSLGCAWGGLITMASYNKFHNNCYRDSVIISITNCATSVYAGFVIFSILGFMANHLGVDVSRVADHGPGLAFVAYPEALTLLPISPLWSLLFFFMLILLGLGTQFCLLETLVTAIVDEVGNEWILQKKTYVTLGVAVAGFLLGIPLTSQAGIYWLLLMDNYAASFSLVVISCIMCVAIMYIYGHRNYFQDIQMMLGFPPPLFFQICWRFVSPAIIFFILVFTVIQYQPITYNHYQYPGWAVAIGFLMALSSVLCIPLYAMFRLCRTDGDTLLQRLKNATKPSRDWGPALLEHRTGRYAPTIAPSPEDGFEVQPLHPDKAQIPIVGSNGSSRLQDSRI
Summary of the method: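 T98G glioma cells expressing human GlyT1 were pretreated 10 min with compound in HEPES buffer pH 7.4 (0.2% BSA), then incubated with compound plus 250 nM final [3H]glycine for 15 min at room temperature. Intracellular radioactivity was counted after NaOH lysis; 10 μM ALX5407 defined non-specific uptake. IC50 came from 10^−9–10^−5 M curves.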

| IC50 [nM] | Structure (SMILES) |
| --- | --- |
| 77 | C[C@H](O)c1cccc2c1C(F)(F)C(=O)N2Cc1noc2ccccc12 [Compound 119, 1-(1,2-benzoxazol-3-ylmethyl)-3,3-difluoro-4-[(1S)-1-hydroxyethyl]-1,3-dihydro-2H-indol-2-one] |
| 39 | C[C@H](O)c1cccc2c1C(F)(F)C(=O)N2Cc1cncc(C(F)(F)F)c1 [Compound 121] |
| 220 | C[C@H](O)c1cccc2c1C(F)(F)C(=O)N2Cc1cc(C(F)F)ccn1 [Compound 122, 1-{[4-(difluoromethyl)pyridin-2-yl]methyl}-3,3-difluoro-4-{(1S)-1-hydroxyethyl]-1,3-dihydro-2H-indol-2-one] |
| 22 | C[C@H](O)c1cccc2c1C(F)(F)C(=O)N2Cc1cc(Br)ccn1 [Compound 123, 1-[(4-bromopyridin-2-yl)methyl]-3,3-difluoro-4-[(1S)-1-hydroxyethyl]-1,3-dihydro-2H-indol-2-one] |
| 12 | COc1cc(CN2C(=O)C(F)(F)c3c([C@H](C)O)cccc32)ccn1 [Compound 124, 3,3-difluoro-4-[(1S)-1-hydroxyethyl]-1-[(2-methoxypyridin-4-yl)methyl]-1,3-dihydro-2H-indol-2-one] |
| 130 | C[C@H](O)c1cccc2c1C(F)(F)C(=O)N2Cc1cc2ccoc2cn1 [Compound 125, 3,3-difluoro-1-(furo[2,3-c]pyridin-5-ylmethyl)-4-[(1S)-1-hydroxyethyl]-1,3-dihydro-2H-indol-2-one] |
| 29 | C[C@H](O)c1cccc2c1C(F)(F)C(=O)N2Cc1ccc2ncoc2c1 [Compound 127, 1-(1,3-benzoxazol-6-ylmethyl)-3,3-difluoro-4-[(1S)-1-hydroxyethyl]-1,3-dihydro-2H-indol-2-one] |
| 52 | C[C@H](O)c1cccc2c1C(F)(F)C(=O)N2Cc1ccc(F)nc1 [Compound 128, 3,3-difluoro-1-[(S-fluoropyridin-3-yl)methyl]-4-[(1S)-1-hydroxyethyl]-1,3-dihydro-2H-indol-2-one] |
| 6900 | C[C@H](O)c1cccc2c1C(F)(F)C(=O)N2Cc1cncc(-n2cncn2)c1 [Compound 129] |
| 400 | C[C@H](O)c1cccc2c1C(F)(F)C(=O)N2Cc1ccc(C(F)F)nc1 [Compound 130, 1-{[6-(difluoromethyl)pyridin-3-yl]methyl}-3,3-difluoro-4-[(1S)-1-hydroxyethyl]-1,3-dihydro-2H-indol-2-one] |
| 930 | C[C@H](O)c1cccc2c1C(F)(F)C(=O)N2Cc1ccc(C(F)F)cn1 [Compound 131, 1-{[5-(difluoromethyl)pyridin-2-yl]methyl)-3,3-difluoro-4-[(1S)-1-hydroxyethyl]-1,3-dihydro-2H-indol-2-one] |
| 18 | C[C@H](O)c1cccc2c1C(F)(F)C(=O)N2Cc1nc2cc(F)ccc2c(=O)n1C [Compound 132, 2-({3,3-difluoro-4-[(1S)-1-hydroxyethyl]-2-oxo-2,3-dihydro-1H-indol-1-yl}methyl)-7-fluoro-3-methylquinazolin-4(3H)-one] |
| 62 | O=C1N(Cc2cnc3ccccc3c2)c2cccc([C@@H](O)C(F)(F)F)c2C1(F)F [Compound 133, 3,3-difluoro-1-(quinolin-3-ylmethyl)-4-[(1R)-2,2,2-trifluoro-1-hydroxyethyl]-1,3-dihydro-2H-indol-2-one] |
| 66 | O=C1N(Cc2cncc(-n3nccn3)c2)c2cccc([C@@H](O)C(F)(F)F)c2C1(F)F [Compound 134, 3,3-difluoro-1-{[5-(2H-1,2,3-triazol-2-yl)pyridin-3-yl]methyl}-4-[(1R)-2,2,2-trifluoro-1-hydroxyethyl]-1,3-dihydro-2H-indol-2-one] |
| 150 | Cn1c(CN2C(=O)C(F)(F)c3c([C@@H](O)C(F)(F)F)cccc32)nc2ccccc21 [Compound 137] |
| 58 | O=C1N(Cc2cc3ccccc3c(=O)[nH]2)c2cccc([C@@H](O)C(F)(F)F)c2C1(F)F [Compound 138, 3-({3,3-difluoro-2-oxo-4-[(1R)-2,2,2-trifluoro-1-hydroxyethyl]-2,3-dihydro-1H-indol-1-yl}methyl) isoquinolin-1(2H)-one] |
| 45 | O=C1N(Cc2ccnc(C(F)F)c2)c2cccc([C@@H](O)C(F)(F)F)c2C1(F)F [Compound 139, 1-[[2-(difluoromethyl)pyridin-4-yl]methyl]-3,3-difluoro-4-[(1R)-2,2,2-trifluoro-1-hydroxyethyl]-1,3-dihydro-2H-indol-2-one] |

The remaining lines, values behind:

| Structure (SMILES) | IC50 [nM] |
| --- | --- |
| C[C@H](O)c1cccc2c1C(F)(F)C(=O)N2Cc1nc2ccccc2n(C)c1=O [Compound 101, 3-({3,3-difluoro-4-[(1S)-1-hydroxyethyl]-2-oxo-2,3-dihydro-1H-indol-1-yl}methyl)-1-methylquinoxalin-2(1H)-one] | 41 |
| C[C@H](O)c1cccc2c1C(F)(F)C(=O)N2Cc1ccc(Cl)nc1 [Compound 102, 1-[(6-chloropyridin-3-yl)methyl]-3,3-difluoro-4-[(1S)-1-hydroxyethyl]-1,3-dihydro-2H-indol-2-one] | 91 |
| C[C@H](O)c1cccc2c1C(F)(F)C(=O)N2Cc1ccc(Cl)cn1 [Compound 103, 1-[(5-chloropyridin-2-yl)methyl]-3,3-difluoro-4-[(1S)-1-hydroxyethyl]-1,3-dihydro-2H-indol-2-one] | 44 |
| C[C@H](O)c1cccc2c1C(F)(F)C(=O)N2Cc1cccc2ccnn12 [Compound 104, 3,3-difluoro-4-[(1S)-1-hydroxyethyl]-1-(pyrazolo[1,5-a]pyridin-7-ylmethyl)-1,3-dihydro-2H-indol-2-one] | 88 |
| C[C@H](O)c1cccc2c1C(F)(F)C(=O)N2Cc1nnc2ccccc2n1 [Compound 105, 1-(1,2,4-benzotriazin-3-ylmethyl)-3,3-difluoro-4-[(1S)-1-hydroxyethyl]-1,3-dihydro-2H-indol-2-one] | 1000 |
| COc1ccc(CN2C(=O)C(F)(F)c3c([C@H](C)O)cccc32)nc1 [Compound 106, 3,3-difluoro-4-[(1S)-1-hydroxyethyl]-1-[(5-methoxypydin-2-yl)methyl]-1,3-dihydro-2H-indol-2-one] | 810 |
| C[C@H](O)c1c(Cl)ccc2c1C(F)(F)C(=O)N2Cc1ccnc(C#N)c1 [Compound 107, 4-({5-chloro-3,3-difluoro-4-[(1S)-1-hydroxyethyl]-2-oxo-2,3-dihydro-1H-indol-1-yl}methyl)pyridine-2-carbonitrile] | 150 |
| C[C@H](O)c1cccc2c1C(F)(F)C(=O)N2Cc1nc2ncccc2c(=O)n1C [Compound 108, 2-({3,3-difluoro-4-[(1S)-1-hydroxyethyl]-2-oxo-2,3-dihydro-1H-indol-1-yl}methyl)-3-methylpyrido[2,3-d]pyrimidin-4(3H)-one] | 240 |
| C[C@H](O)c1cccc2c1C(F)(F)C(=O)N2Cc1nc2cnccc2c(=O)n1C [Compound 111, 2-({3,3-difluoro-4-[(1s)-1-hydroxyethyl]-2-oxo-2,3-dihydro-1H-indol-1-yl}methyl)-3-methylpyrido[3,4-d]pyrimidin-4(3H)-one] | 130 |
| C[C@H](O)c1cccc2c1C(F)(F)C(=O)N2Cc1ccc(C(F)(F)F)cn1 [Compound 112, 3,3-difluoro-4-[(1S)-1-hydroxyethyl]-1-{[5-(trifluoromethyl)pyridin-2-yl]methyl}-1,3-dihydro-2H-indol-2-one] | 29 |
| C[C@H](O)c1cccc2c1C(F)(F)C(=O)N2Cc1ccc(C#N)cn1 [Compound 113, 6-({3,3-difluoro-4-[(1S)-1-hydroxyethyl]-2-oxo-2,3-dihydro-1H-indol-1-yl}methyl)pyridine-3-carbonitrile] | 940 |
| C[C@H](O)c1cccc2c1C(F)(F)C(=O)N2Cc1ccc(F)cn1 [Compound 114, 3,3-difluoro-1-[(5-fluoropyridin-2-yl)methyl]-4-[(1S)-1-hydroxyethyl]-1,3-dihydro-2H-indol-2-one] | 61 |
| C[C@H](O)c1cccc2c1C(F)(F)C(=O)N2Cc1ccc2cc[nH]c2n1 [Compound 115, 3,3-difluoro-4-[(1S)-1-hydroxyethyl]-1-(1H-pyrrolo[2,3-b]pyridin-6-ylmethyl)-1,3-dihydro-2H-indol-2-one] | 98 |
| C[C@H](O)c1cccc2c1C(F)(F)C(=O)N2Cc1cncc(C(F)F)c1 [Compound 116, 1-{[5-(difluoromethyl)pyridin-3-yl]methyl}-3,3-difluoro-4-[(1S)-1-hydroxyethyl]-1,3-dihydro-2H-indol-2-one] | 110 |
| C[C@H](O)c1cccc2c1C(F)(F)C(=O)N2Cc1ccnc(C(F)F)c1 [Compound 117, 1-{[2-(difluoromethyl)pyridin-4-yl]methyl}-3,3-difluoro-4-[(1S)-1-hydroxyethyl]-1,3-dihydro-2H-indol-2-one] | 31 |
| C[C@H](O)c1cccc2c1C(F)(F)C(=O)N2Cc1ccc(C(F)(F)F)nc1 [Compound 118, 3,3-difluoro-4-[(1S)-1-hydroxyethyl]-1-{[6-(trifluoromethyl)pyridin-3-yl]methyl}-1,3-dihydro-2H-indol-2-one] | 27 |
